Data published in patent US20070270434A1, “SULFONYL-SUBSTITUTED BICYCLIC COMPOUNDS AS MODULATORS OF PPAR” (KALYPSYS, INC., priority 2006, published 2007).

Assays:
Type in all cases: cell-based, murine and human
Conditions in all cases: 20-24 hours
[1] = target: T1, PPAR-alpha ligand binding domain fused to GAL4 DNA binding domain (UniProt Q07869); assay: Transient transfection transactivation assay in CV-1 cells, PPAR-alpha (GAL4 chimera, luciferase reporter)
T1 sequence (Q07869 1-468): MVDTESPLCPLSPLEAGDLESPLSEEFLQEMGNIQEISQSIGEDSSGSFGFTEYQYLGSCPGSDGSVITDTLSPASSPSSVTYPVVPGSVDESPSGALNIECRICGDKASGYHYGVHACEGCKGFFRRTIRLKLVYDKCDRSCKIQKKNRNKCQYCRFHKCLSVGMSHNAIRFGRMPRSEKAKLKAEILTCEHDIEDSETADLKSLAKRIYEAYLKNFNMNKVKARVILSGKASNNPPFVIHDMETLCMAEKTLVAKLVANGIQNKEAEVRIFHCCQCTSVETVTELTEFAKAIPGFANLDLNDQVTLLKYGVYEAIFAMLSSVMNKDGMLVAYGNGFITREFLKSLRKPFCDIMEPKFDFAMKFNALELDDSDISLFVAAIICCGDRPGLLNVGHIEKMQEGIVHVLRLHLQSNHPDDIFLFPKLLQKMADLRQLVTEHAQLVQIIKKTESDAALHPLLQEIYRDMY
Excerpt: (§1) Compounds may be screened for functional potency in transient transfection assays in CV-1 cells for their ability to activate the PPAR subtypes (transactivation assay). A previously established chimeric receptor system was utilized to allow comparison of the relative transcriptional activity of the receptor subtypes on the same synthetic response element and to prevent endogenous receptor activation from complicating the interpretation of results. See, for example, Lehmann, J. M.; Moore, L. B.; Smith-Oliver, T. A; Wilkinson, W. O.; Willson, T. M.; Kliewer, S. A., An antidiabetic thiazolidinedione is a high affinity ligand for peroxisome proliferator-activated receptor […], J. Biol. Chem., 1995, 270, 12953-6. The ligand binding domains for murine and human PPAR-alpha, PPAR-gamma, and PPAR-delta are each fused to the yeast transcription factor GAL4 DNA binding domain. CV-1 cells were transiently transfected with expression vectors for the respective PPAR chimera along with a reporter construct containing four or five copies of the GAL4 DNA binding site driving expression of luciferase. After 8-16 h, the cells are replated into multi-well assay plates and the media is exchanged to phenol-red free DME medium supplemented with 5% delipidated calf serum. 4 hours after replating, cells were treated with either compounds or 1% DMSO for 20-24 hours. Luciferase activity was then assayed with Britelite (Perkin Elmer) following the manufacturer's protocol and measured with either the Perkin Elmer Viewlux or Molecular Devices Acquest (see, for example, Kliewer, S. A., et. al. Cell 1995, 83, 813-819). Rosiglitazone is used as a positive control in the PPARγ assay. Wy-14643 and GW7647 are used as positive controls in the PPARα assay. GW501516 is used as the positive control in the PPARδ assay.

[2] = target: T2, PPAR-delta ligand binding domain fused to GAL4 DNA binding domain (UniProt Q03181); assay: Transient transfection transactivation assay in CV-1 cells, PPAR-delta (GAL4 chimera, luciferase reporter)
T2 sequence (Q03181 1-441): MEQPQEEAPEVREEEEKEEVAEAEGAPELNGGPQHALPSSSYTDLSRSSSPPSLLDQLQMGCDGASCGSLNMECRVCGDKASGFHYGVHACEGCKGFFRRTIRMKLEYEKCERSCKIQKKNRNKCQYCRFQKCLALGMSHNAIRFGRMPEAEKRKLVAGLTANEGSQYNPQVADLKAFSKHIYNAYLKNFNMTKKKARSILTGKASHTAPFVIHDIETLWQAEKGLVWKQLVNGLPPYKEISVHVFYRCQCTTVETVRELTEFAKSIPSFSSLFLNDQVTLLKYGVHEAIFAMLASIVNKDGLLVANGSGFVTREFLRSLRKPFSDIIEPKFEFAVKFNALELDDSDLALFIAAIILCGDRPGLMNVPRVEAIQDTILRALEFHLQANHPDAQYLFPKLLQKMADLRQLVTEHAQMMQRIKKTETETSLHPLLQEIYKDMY
Excerpt: as §1

[3] = target: T3, PPAR-gamma ligand binding domain fused to GAL4 DNA binding domain (UniProt P37231); assay: Transient transfection transactivation assay in CV-1 cells, PPAR-gamma (GAL4 chimera, luciferase reporter)
T3 sequence (P37231 1-505): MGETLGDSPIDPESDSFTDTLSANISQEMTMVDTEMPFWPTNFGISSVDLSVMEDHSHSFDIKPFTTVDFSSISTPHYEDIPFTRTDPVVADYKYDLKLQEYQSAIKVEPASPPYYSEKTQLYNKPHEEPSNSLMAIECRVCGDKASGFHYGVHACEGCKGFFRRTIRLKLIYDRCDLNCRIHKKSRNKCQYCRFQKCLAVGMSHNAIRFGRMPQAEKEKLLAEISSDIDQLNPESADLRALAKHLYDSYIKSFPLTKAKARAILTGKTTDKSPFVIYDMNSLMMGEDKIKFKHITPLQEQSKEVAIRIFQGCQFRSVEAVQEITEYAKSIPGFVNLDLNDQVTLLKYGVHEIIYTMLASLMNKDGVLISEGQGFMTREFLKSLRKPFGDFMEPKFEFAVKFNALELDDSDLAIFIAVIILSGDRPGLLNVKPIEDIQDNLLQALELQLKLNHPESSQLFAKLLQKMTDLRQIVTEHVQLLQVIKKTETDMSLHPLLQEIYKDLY
Excerpt: as §1

Compound | EC50 [1] | EC50 [2] | EC50 [3]
C[C@@H]1CN(CCc2ccc(OC(F)(F)F)cc2)C[C@H](C)N1S(=O)(=O)c1cccc2c1CC(C(=O)O)C2 (mixture of isomers) [Example 12A, 4-(cis-2,6-Dimethyl-4-(4-(trifluoromethoxy)phenethyl)piperazin-1-ylsulfonyl)-2,3-dihydro-1H-indene-2-carboxylic acid] | > 100 µM | < 5 µM | > 100 µM
C[C@@H]1CN(CCc2ccc(C(F)(F)F)cc2)C[C@H](C)N1S(=O)(=O)c1cccc2c1CC(C(=O)O)C2 (mixture of isomers) [Example 14A, 4-(cis-2,6-Dimethyl-4-(4-(trifluoromethyl)phenethyl)piperazin-1-ylsulfonyl)-2,3-dihydro-1H-indene-2-carboxylic acid] | > 100 µM | < 5 µM | > 100 µM
C[C@@H]1CN(Cc2ccc(C(F)(F)F)c(F)c2)C[C@H](C)N1S(=O)(=O)c1cccc2c1CC(C(=O)O)C2 (stereo partly drawn) [Example 1, 4-(4-(3-Fluoro-4-(trifluoromethyl)benzyl)-cis-2,6-dimethylpiperazin-1-ylsulfonyl)-2,3-dihydro-1H-indene-2-carboxylic acid] | > 100 µM | < 5 µM | > 100 µM
O=C(O)C1Cc2cccc(S(=O)(=O)N3CCN(Cc4cccc(OC(F)(F)F)c4)CC3)c2C1 (stereo not drawn) [Example 2] | > 100 µM | < 5 µM | < 5 µM
C[C@@H]1CN(Cc2cccc(OC(F)(F)F)c2)C[C@H](C)N1S(=O)(=O)c1cccc2c1CC(C(=O)O)C2 (stereo partly drawn) [Example 3, 4-[cis-2,6-Dimethyl-4-(3-(trifluoromethoxy)benzyl)piperazine-1-sulfonyl]-2,3-dihydro-1H-indene-2 carboxylic acid] | > 100 µM | < 5 µM | 5 to 100 µM
C[C@@H]1CN(Cc2ccc(OC(F)(F)F)c(Cl)c2)C[C@H](C)N1S(=O)(=O)c1cccc2c1CC(C(=O)O)C2 (stereo partly drawn) [Example 4, 4-(4-(3-Chloro-4-(trifluoromethoxy)benzyl)-cis-2,6-dimethylpiperazin-1-ylsulfonyl)2,3-dihydro-1H-indene-2-carboxylic acid] | 5 to 100 µM | < 5 µM | 5 to 100 µM
C[C@@H]1CN(Cc2ccc(OC(F)(F)F)c(F)c2)C[C@H](C)N1S(=O)(=O)c1cccc2c1CC(C(=O)O)C2 (stereo partly drawn) [Example 5] | 5 to 100 µM | < 5 µM | 5 to 100 µM
C[C@@H]1CN(Cc2ccc(SC(F)(F)F)cc2)C[C@H](C)N1S(=O)(=O)c1cccc2c1CC(C(=O)O)C2 (stereo partly drawn) [Example 6, 4-(cis-2,6-Dimethyl-4-(4-(trifluoromethylthio)benzyl)piperazin-1-ylsulfonyl)-2,3-dihydro-1H-indene-2-carboxylic acid] | 5 to 100 µM | < 5 µM | 5 to 100 µM
C[C@@H]1CN(C(=O)Cc2ccc(OC(F)(F)F)cc2)C[C@H](C)N1S(=O)(=O)c1cccc2c1CC(C(=O)O)C2 (stereo partly drawn) [Example 7, 4-(cis-2,6-Dimethyl-4-(2-(4-(trifluoromethoxy)phenyl)acetyl)piperazin-1-ylsulfonyl)-2,3-dihydro-1H-indene-2-carboxylic acid] | > 100 µM | < 5 µM | > 100 µM
C[C@@H]1CN(C(=O)CCc2ccc(OC(F)(F)F)cc2)C[C@H](C)N1S(=O)(=O)c1cccc2c1CC(C(=O)O)C2 (stereo partly drawn) [Example 8, 4-(cis-2,6-Dimethyl-4-(3-(4-(trifluoromethoxy)phenyl)propanoyl)piperazin-1-ylsulfonyl)-2,3-dihydro-1H-indene-2-carboxylic acid] | > 100 µM | < 5 µM | > 100 µM
C[C@@H]1CN(C(=O)c2ccc(OC(F)(F)F)cc2)C[C@H](C)N1S(=O)(=O)c1cccc2c1CC(C(=O)O)C2 (stereo partly drawn) [Example 9, 4-(cis-2,6-Dimethyl-4-(4-(trifluoromethoxy)benzoyl)piperazin-1-ylsulfonyl)-2,3-dihydro-1H-indene-2-carboxylic acid] | > 100 µM | 5 to 100 µM | > 100 µM
O=C(O)C1Cc2cccc(S(=O)(=O)N3CCN(S(=O)(=O)c4ccc(OC(F)(F)F)cc4)CC3)c2C1 (stereo not drawn) [Example 10, 4-(4-(4-(Trifluoromethoxy)phenylsulfonyl)piperazin-1-ylsulfonyl)-2,3-dihydro-1H-indene-2-carboxylic acid] | > 100 µM | 5 to 100 µM | 5 to 100 µM
C[C@@H]1CN(S(=O)(=O)c2ccc(OC(F)(F)F)cc2)C[C@H](C)N1S(=O)(=O)c1cccc2c1CC(C(=O)O)C2 (stereo partly drawn) [Example 11, 4-(cis-2,6-Dimethyl-4-(4-(trifluoromethoxy)phenylsulfonyl)piperazin-1-ylsulfonyl)-2,3-dihydro-1H-indene-2-carboxylic acid] | > 100 µM | < 5 µM | 5 to 100 µM
C[C@@H]1CN(C(=O)Cc2ccc(C(F)(F)F)cc2)C[C@H](C)N1S(=O)(=O)c1cccc2c1CC(C(=O)O)C2 (stereo partly drawn) [Example 13, 4-(cis-2,6-Dimethyl-4-(2-(4-(trifluoromethyl)phenyl)acetyl)piperazin-1-ylsulfonyl)-2,3-dihydro-1H-indene-2-carboxylic acid] | > 100 µM | 5 to 100 µM | > 100 µM
O=C(O)C1Cc2cccc(S(=O)(=O)N3CCN(CCc4ccc(OC(F)(F)F)cc4)CC3)c2C1 (stereo not drawn) [Example 15, 4-(4-(4-(Trifluoromethoxy)phenethyl)piperazin-1-ylsulfonyl)-2,3-dihydro-1H-indene-2-carboxylic acid] | 5 to 100 µM | < 5 µM | 5 to 100 µM
O=C(O)C1Cc2cccc(S(=O)(=O)N3CCN(C(=O)CCc4ccc(OC(F)(F)F)cc4)CC3)c2C1 (stereo not drawn) [Example 16, 4-(4-(3-(4-(Trifluoromethoxy)phenyl)propanoyl)piperazin-1-ylsulfonyl)-2,3-dihydro-1H-indene-2-carboxylic acid] | > 100 µM | 5 to 100 µM | > 100 µM
C[C@@H]1CN(CCCc2ccc(OC(F)(F)F)cc2)C[C@H](C)N1S(=O)(=O)c1cccc2c1CC(C(=O)O)C2 (stereo partly drawn) [Example 17, 4-(cis-2,6-dimethyl-4-(3-(4-(trifluoromethoxy)phenyl)propyl)piperazin-1-ylsulfonyl)-2,3-dihydro-1H-indene-2-carboxylic acid] | > 100 µM | < 5 µM | 5 to 100 µM
O=C(O)C1Cc2cccc(S(=O)(=O)N3CCN(C(=O)c4ccc(OC(F)(F)F)cc4)CC3)c2C1 (stereo not drawn) [Example 18, 4-(4-(4-(trifluoromethoxy)benzoyl)piperazin-1-ylsulfonyl)-2,3-dihydro-1H-indene-2-carboxylic acid] | > 100 µM | 5 to 100 µM | > 100 µM
